Laboratory results from patent US20250214977A1, “STAT6 INHIBITORS AND USES THEREOF” (Kymera Therapeutics, Inc., priority 2024, published 2025).

Each compound was assayed on Phosphorylation of STAT6 in human A549 cells (assay: Phosphorylated STAT6 (pSTAT6) flow cytometry assay in human A549 cells). Conditions: listed as I-394, read-out: STAT6 IL4 pSTAT6 assay in A549 cells: Average IC50.
Format: cell-based
Text: Example 3. Phosphorylated STAT6 (pSTAT6) Flow Cytometry Assay in Human A549 Cells
Phosphorylation of STAT6 in human A549 cells was quantitatively measured using flow cytometry technology.

IC50, > 100000 nM:
CCC1CN(C)CC1c1cc(C2=CCCN(C(=O)CCn3ccnn3)C2)c(F)c2[nH]c(C(=O)N3CCN(c4ncc(F)cc4OC)CC3)cc12 (centres unmarked) [Example I-1209, 1-[5-[4-(4-ethyl-1-methyl-pyrrolidin-3-yl)-7-fluoro-2-[4-(5-fluoro-3-methoxy-2-pyridyl)piperazine-1-carbonyl]-1H-indol-6-yl]-3,6-dihydro-2H-pyridin-1-yl]-3-(triazol-1-yl)propan-1-one]

Same assay, conditions: read-out: STAT6 IL4 pSTAT6 assay in A549 cells: Average IC50

IC50, < 100 nM:
CNc1ccc(-c2cc(C3=CCCN(C(=O)CCn4ccnn4)C3)c(F)c3[nH]c(C(=O)N(C)C)cc23)c(OC)c1 [Example I-1059]
COc1ccccc1-c1cc(C2=CCCN(C(=O)CCn3ccnn3)C2)c(F)c2[nH]c(C(=O)N3CCN(c4cccc5nonc45)CC3)cc12 [Example I-951]
COc1cc(F)cnc1N1CCN(C(=O)c2cc3c(-c4cnn(C)c4-c4ccccc4)cc(C4=CCCN(C(=O)CCn5ccnn5)C4)c(F)c3[nH]2)CC1 [Example I-621]
COc1ccccc1-c1cc(C2=CCCN(C(=O)CCn3ccnn3)C2)c(F)c2[nH]c(C(=O)N3CCN(c4cccc5cncn45)CC3)cc12 [Example I-936]
COc1cc(N)ccc1-c1cc(C2=CCCN(C(=O)CCn3ccnn3)C2)c(F)c2[nH]c(C(=O)N3CCN(c4ncccc4OC)CC3)cc12 [Example I-571]
COc1cc(F)cnc1N1CCN(C(=O)c2cc3c(-c4ccc(C(F)(F)F)cc4CO)cc(C4=CCCN(C(=O)CCn5ccnn5)C4)c(F)c3[nH]2)CC1 [Example I-1167]
COc1ccccc1-c1cc(C2=CCCN(C(=O)CCn3ccnn3)C2)c(F)c2[nH]c(C(=O)N3CCN(c4nc(C)nc5ccccc45)CC3)cc12 [Example I-923]
COc1cnccc1-c1cc(C(=O)N2CCN(c3ncc(F)cc3OC)CC2)cc2cc(C3=CCCN(C(=O)CCn4ccnn4)C3)n(CC3CC3)c12 [Example I-729]
CC(=O)N1CCN(c2cc(C3=CCCN(C(=O)CCn4ccnn4)C3)cc3cc(C(=O)N(C)C)oc23)CC1 [Example I-1186]
COc1ccccc1-c1cc(C(=O)N2Cc3cnn(C)c3C2)cc2cc(C3=CCCN(C(=O)CCn4ccnn4)C3)n(CC3CC3)c12 [Example I-736]
COc1ccccc1-c1cc(C2=CCCN(C(=O)CCn3ccnn3)C2)c(F)c2[nH]c(C(=O)N3CCN(c4nccc5[nH]ccc45)CC3)cc12 [Example I-966]
COc1cccnc1N1CCN(C(=O)c2cc3ccc(C4=CCCN(C(=O)CCn5ccnn5)C4)c(F)c3[nH]2)CC1 [Example I-338]
COc1ccccc1-c1cc(C2=CCCN(C(=O)CCn3ccnn3)C2)c(F)c2[nH]c(C(=O)N3CCc4cnn(C)c4C3)cc12 [Example I-516]
COc1ccccc1-c1cc(C2=CCCN(C(=O)CCn3ccnn3)C2)c(F)c2[nH]c(C(=O)N3CCc4cccc(OC)c4C3)cc12 [Example I-901]
COc1ccccc1-c1cc(C2=CCCN(C(=O)CCn3ccnn3)C2)c(F)c2[nH]c(C(=O)N3CCc4cccnc43)cc12 [Example I-848]
CCc1nc(C)ccc1-c1cc(C(=O)N2CCN(c3ncc(F)cc3OC)CC2)cc2cc(C3=CCCN(C(=O)CCc4nccs4)C3)n(CC3CC3)c12 [Example I-523]
COc1ccccc1-c1cc(C2=CCCN(C(=O)CCn3ccnn3)C2)c(F)c2[nH]c(C(=O)N(C)Cc3ccc4c(c3)OCO4)cc12 [Example I-976]
CNc1ccc(-c2cc(C3=CCCN(C(=O)C4Cc5ccccc5CN4C=O)C3)cc3[nH]c(C(=O)N(C)C)cc23)cc1 (centres unmarked) [Example I-551]
CCc1nc(C)ccc1-c1cc(C(=O)N2CCN(c3ncc(F)cc3OC)CC2)cc2cc(C3=CCCN(C(=O)CCn4ccnn4)C3)n(CC3CC3)c12 [Example I-517]
CCc1ccccc1-c1cc(C2=CCCN(C(=O)CCn3ccnn3)C2)c(F)c2[nH]c(C(=O)N3CCN(c4ncccc4OC)CC3)cc12 [Example I-562]
CCc1ccncc1-c1cc(C2=CCCN(C(=O)CC(=O)O)C2)c(F)c2[nH]c(C(=O)N3CCN(c4ncc(F)cc4OC)CC3)cc12 [Example I-786]
COc1ccccc1-c1cc(C2=CCCN(C(=O)CCn3ccnn3)C2)c(F)c2[nH]c(C(=O)N3CCN(c4ccnc5c4CC(=O)N5)CC3)cc12 [Example I-914]
COc1cccnc1N1CCN(C(=O)c2cc3c(C4=CCN(C)CC4C)cc(C4=CCCN(C(=O)CCn5ccnn5)C4)c(F)c3[nH]2)CC1 (centres unmarked) [Example I-1150]
COc1cc(F)cnc1N1CCN(C(=O)c2cc3c(C4CCN(C)CC4)cc(C4=CCCN(C(=O)CCn5ccnn5)C4)c(F)c3[nH]2)CC1 [Example I-725]
CCc1cc(C)ncc1-c1cc(C2=CCCN(C(=O)CCn3ccnn3)C2)c(F)c2[nH]c(C(=O)N3CCN(C4CC4)CC3)cc12 [Example I-536]
COc1cccc(C2=CCN(C(=O)c3cc4c(-c5cnccc5OC)cc(C5=CCCN(C(=O)CCn6ccnn6)C5)c(F)c4[nH]3)CC2)n1 [Example I-443]
CCc1ccncc1-c1cc(C2=CCCN(C(=O)CCn3cccn3)C2)c(F)c2[nH]c(C(=O)N3CCN(c4ncc(F)cc4OC)CC3)cc12 [Example I-686]
COc1cccnc1N1CCN(C(=O)c2cc3c(C4CCCCC4)cc(C4=CCCN(C(=O)CCn5ccnn5)C4)c(F)c3[nH]2)CC1 [Example I-579]
CCc1nc(C)ccc1-c1cc(C2=CCCN(C(=O)CCn3ccnn3)C2)c(F)c2[nH]c(C(=O)N3CCN(c4ncc(F)cc4OC)CC3)cc12 [Example I-735]
COc1cc(N(C)C)ccc1-c1cc(C2=CCCN(C(=O)CCn3ccnn3)C2)c(F)c2[nH]c(C(=O)N3CCN(c4ccccc4OC)CC3)cc12 [Example I-610]
COc1cc(F)cnc1N1CCN(C(=O)c2cc3c(-c4cnc5ccccc5c4OC)cc(C4=CCCN(C(=O)CCn5ccnn5)C4)c(F)c3[nH]2)CC1 [Example I-468]
COc1ccccc1-c1cc(C2=CCCN(C(=O)CCn3ccnn3)C2)c(F)c2[nH]c(C(=O)N3CCC(c4cccnc4C)CC3)cc12 [Example I-1002]

IC50, > 100000 nM:
COc1ccccc1-c1cc(C2=CCCN(C(=O)CCn3ccnn3)C2)c(F)c2[nH]c(C(=O)N3CCN(c4nc(OC(F)F)ccc4OC)CC3)cc12 [Example I-490]
CCn1ncc2c1CN(C(=O)c1cc3c(-c4ccc(C5CC5)nc4C)cc(C4=CCCN(C(=O)CCn5ccnn5)C4)c(F)c3[nH]1)C2 [Example I-762]
COc1cccnc1N1CCN(C(=O)c2cc3c(-c4cccc5ccccc45)cc(C4=CCCN(C(=O)CCn5ccnn5)C4)c(F)c3[nH]2)CC1 [Example I-397]
COc1ccncc1-c1cc(C2=CCCN(C(C)=O)C2)c(F)c2[nH]c(C(=O)N3CCN(c4ncc(F)cc4OC)CC3)cc12 [Example I-696]
COc1ccccc1-c1cc(C2=CCCN(C(=O)CCn3ccnn3)C2)c(F)c2[nH]c(C(=O)N3CCN(c4cnccc4OC)CC3)cc12 [Example I-465]
CCOc1ccncc1-c1cc(C2=CCCN(C(=O)CCn3ccnn3)C2)c(F)c2[nH]c(C(=O)N3CCN(c4ccccc4OC)CC3)cc12 [Example I-406]
CCc1ccc(-c2cc(C(=O)N3Cc4cnn(CC)c4C3)cc3cc(C4=CCCN(C(=O)CC(=O)O)C4)n(CC(C)C)c23)c(C)n1 [Example I-801]
CCc1nc(C)ccc1-c1cc(C(=O)N2Cc3cnn(CC)c3C2)cc2cc(C3=CCCN(C(=O)CCn4ccnn4)C3)n(CC3CC3)c12 [Example I-535]
COc1ccncc1-c1cc(C2=CCCN(C(=O)CCn3ccnn3)C2)c(F)c2[nH]c(C(=O)N3CCN(c4ccccc4)CC3)cc12 [Example I-400]

IC50, 100 to 1000 nM:
CN(C)C(=O)c1cc2ccc(C3=CCCN(C(=O)CCc4nncs4)C3)cc2[nH]1 [Example I-828]
COc1cc(C)c(N2CCN(C(=O)c3cc4c(-c5ccccc5OC)cc(C5=CCCN(C(=O)CCn6ccnn6)C5)c(F)c4[nH]3)CC2)c(C)n1 [Example I-958]
COc1ccccc1-c1cc(C2=CCCN(C(=O)CCn3ccnn3)C2)c(F)c2[nH]c(C(=O)N3CCN(c4cc(C)c(O)c(C)c4)CC3)cc12 [Example I-1032]
CC(=O)N1CCC=C(c2cc(-c3ccc(C)nc3)c3cc(C(=O)N(C)C)[nH]c3c2F)C1 [Example I-885]
COc1ccccc1-c1cc(C2=CCCN(C(=O)[C@H]3Cc4ccccc4CN3C=O)C2)cc2cc(C(=O)N(C)C)oc12 (single isomer, unassigned) [Example I-804]
COc1ccccc1/C=C/c1cc(C2=CCCN(C(=O)CCn3ccnn3)C2)c(F)c2[nH]c(C(=O)N3CCN(c4ncc(F)cc4OC)CC3)cc12 [Example I-1130]
COc1ccc(NC(=O)c2cc3c(-c4ccccc4OC)cc(C4=CCCN(C(=O)CCn5ccnn5)C4)c(F)c3[nH]2)cn1 [Example I-979]
COc1ccccc1-c1cc(C2=CCCN(C(=O)CCn3ccnn3)C2)c(F)c2[nH]c(C(=O)N3CC4CN(c5ncccc5OC)CC4C3)cc12 (centres unmarked) [Example I-1035]
CCOC(=O)CC(=O)N1CCC=C(c2cc3cc(C(=O)N4CCN(c5ncc(F)cc5OC)CC4)cc(-c4ccc(C)nc4CC)c3n2CC2CC2)C1 [Example I-1173]
COc1ccccc1-c1cc(C2=CCCN(C(=O)CCn3ccnn3)C2)c(F)c2[nH]c(C(=O)N3CCN(c4ccc(C(F)(F)F)cc4F)CC3)cc12 [Example I-932]

IC50, 10000 to 100000 nM:
COc1ccccc1-c1cc(C2=CCCN(C(=O)CCn3ccnn3)C2)c(F)c2[nH]c(C(=O)N3CCN(C4CC(F)(F)C4)CC3)cc12 [Example I-501]
